From US10617693B2, “Methods of treating and/or preventing actinic keratosis” (Athenex, Inc., priority 2017, dated 2020)

Tested on: subjects with AK on the face or scalp
Assay: Phase 2a study KX01-AK-002: local skin reactions (grade 0 not present to 4 worst) and adverse events, 0.5 mg KX-01 on 25 cm^2
Format: in vivo, human
Source text: An ongoing Phase 2a, open-label, multicenter, activity and safety study of KX-01 administered topically in subjects with AK on the face or scalp is described herein. […] Secondary objectives are to assess the activity of KX-01 administered topically during Days 1-57 based on reduction of AK lesion counts from baseline, assess the safety and tolerability and pharmacokinetics, and contrast the dose regimens (5-day treatment with 3-day treatment) in terms of activity and safety in subjects with AK on the face or scalp. This uncontrolled, nonrandomized trial is being conducted at 16 investigational sites in the United States. Enrollment is sequential for 2 cohorts of approximately 80 subjects each. Enrollment is closed for Cohort 1 and ongoing for Cohort 2. The two treatment cohorts are summarized below: • Cohort 1: 0.5 mg KX-01 administered topically to a contiguous treatment area of 25 cm^2 with 4-8 clinically typical AK lesions for 5 consecutive days • Cohort 2: 0.5 mg KX-01 administered topically to a contiguous treatment area of 25 cm^2 with 4-8 clinically typical AK lesions for 3 consecutive days
0.5 mg KX-01 is administered topically to an area of 25 cm^2 on the face or scalp by site staff on treatment days. […] AK lesion counts are recorded at baseline, days 8, 15, 29, and 57. […] Standardized photography of treatment area is performed at baseline, day 8 and day 57. Plasma samples are being collected at preplanned time points on days 1 and 5 for Cohort 1, and on days 1 and 3 for Cohort 2.
Absence or presence of hyperpigmentation, hypopigmentation and scarring are also assessed. Application site reactions not classified as LSRs are reported as AEs. […] LSRs and AEs are reported separately. All LSRs, pigmentation, and scarring in the treatment area will be followed to resolution or stabilization.
The range of possible composite scores is 0-24.
The Phase 2a trial described in Example 2a was completed with 84 eligible subjects enrolled in each of two cohorts: one cohort was subjected to the treatment for 5 consecutive days, and the other cohort was subjected to the treatment for 3 consecutive days. The results are described below and in FIG. 5.

With `O=C(Cc1ccc(-c2ccc(OCCN3CCOCC3)cc2)cn1)NCc1ccccc1` [KX-01] the “Vesiculation/Pustulation grade 0, n/N subjects” value (Day 3, Cohort 1 (5-day)) was 67/67, the “Vesiculation/Pustulation grade 1, n/N subjects” value (Day 3, Cohort 1 (5-day)) was 0 and the “Vesiculation/Pustulation grade 2, n/N subjects” value (Day 3, Cohort 1 (5-day)) was 0. For the same molecule, the “Vesiculation/Pustulation grade 3, n/N subjects” value (Day 3, Cohort 1 (5-day)) was 0, the “Vesiculation/Pustulation grade 4, n/N subjects” value (Day 3, Cohort 1 (5-day)) was 0 and the “Crusting grade 0, n/N subjects” value (Day 4, Cohort 1 (5-day)) was 61/67. The “Crusting grade 1, n/N subjects” value (Day 4, Cohort 1 (5-day)) was 4/67, the “Crusting grade 2, n/N subjects” value (Day 4, Cohort 1 (5-day)) was 2/67 and the “Crusting grade 3, n/N subjects” value (Day 4, Cohort 1 (5-day)) was 0. For the same molecule, the “Crusting grade 4, n/N subjects” value (Day 4, Cohort 1 (5-day)) was 0, the “Erosion/Ulceration grade 0, n/N subjects” value (Day 4, Cohort 1 (5-day)) was 65/67 and the “Erosion/Ulceration grade 1, n/N subjects” value (Day 4, Cohort 1 (5-day)) was 2/67. For the same molecule, the “Erosion/Ulceration grade 2, n/N subjects” value (Day 4, Cohort 1 (5-day)) was 0, the “Erosion/Ulceration grade 3, n/N subjects” value (Day 4, Cohort 1 (5-day)) was 0 and the “Erosion/Ulceration grade 4, n/N subjects” value (Day 4, Cohort 1 (5-day)) was 0. For the same molecule, the “Erythema grade 0, n/N subjects” value (Day 4, Cohort 1 (5-day)) was 19/67, the “Erythema grade 1, n/N subjects” value (Day 4, Cohort 1 (5-day)) was 26/67 and the “Erythema grade 2, n/N subjects” value (Day 4, Cohort 1 (5-day)) was 17/67. For the same molecule, the “Erythema grade 3, n/N subjects” value (Day 4, Cohort 1 (5-day)) was 5/67, the “Erythema grade 4, n/N subjects” value (Day 4, Cohort 1 (5-day)) was 0 and the “Flaking/Scaling grade 0, n/N subjects” value (Day 4, Cohort 1 (5-day)) was 43/67. The “Flaking/Scaling grade 1, n/N subjects” value (Day 4, Cohort 1 (5-day)) was 16/67, the “Flaking/Scaling grade 2, n/N subjects” value (Day 4, Cohort 1 (5-day)) was 5/67 and the “Flaking/Scaling grade 3, n/N subjects” value (Day 4, Cohort 1 (5-day)) was 3/67. For the same molecule, the “Flaking/Scaling grade 4, n/N subjects” value (Day 4, Cohort 1 (5-day)) was 0, the “Swelling grade 0, n/N subjects” value (Day 4, Cohort 1 (5-day)) was 65/67 and the “Swelling grade 1, n/N subjects” value (Day 4, Cohort 1 (5-day)) was 2/67. The “Swelling grade 2, n/N subjects” value (Day 4, Cohort 1 (5-day)) was 0, the “Swelling grade 3, n/N subjects” value (Day 4, Cohort 1 (5-day)) was 0 and the “Swelling grade 4, n/N subjects” value (Day 4, Cohort 1 (5-day)) was 0. The “Vesiculation/Pustulation grade 0, n/N subjects” value (Day 4, Cohort 1 (5-day)) was 66/67, the “Vesiculation/Pustulation grade 1, n/N subjects” value (Day 4, Cohort 1 (5-day)) was 1/67 and the “Vesiculation/Pustulation grade 2, n/N subjects” value (Day 4, Cohort 1 (5-day)) was 0. For the same molecule, the “Vesiculation/Pustulation grade 3, n/N subjects” value (Day 4, Cohort 1 (5-day)) was 0, the “Vesiculation/Pustulation grade 4, n/N subjects” value (Day 4, Cohort 1 (5-day)) was 0 and the “Crusting grade 0, n/N subjects” value (Day 5, Cohort 1 (5-day)) was 56/67. For the same molecule, the “Crusting grade 1, n/N subjects” value (Day 5, Cohort 1 (5-day)) was 9/67, the “Crusting grade 2, n/N subjects” value (Day 5, Cohort 1 (5-day)) was 2/67 and the “Crusting grade 3, n/N subjects” value (Day 5, Cohort 1 (5-day)) was 0. For the same molecule, the “Crusting grade 4, n/N subjects” value (Day 5, Cohort 1 (5-day)) was 0, the “Erosion/Ulceration grade 0, n/N subjects” value (Day 5, Cohort 1 (5-day)) was 61/67 and the “Erosion/Ulceration grade 1, n/N subjects” value (Day 5, Cohort 1 (5-day)) was 6/67. The “Erosion/Ulceration grade 2, n/N subjects” value (Day 5, Cohort 1 (5-day)) was 0, the “Erosion/Ulceration grade 3, n/N subjects” value (Day 5, Cohort 1 (5-day)) was 0 and the “Erosion/Ulceration grade 4, n/N subjects” value (Day 5, Cohort 1 (5-day)) was 0. For the same molecule, the “Erythema grade 0, n/N subjects” value (Day 5, Cohort 1 (5-day)) was 12/67, the “Erythema grade 1, n/N subjects” value (Day 5, Cohort 1 (5-day)) was 19/67 and the “Erythema grade 2, n/N subjects” value (Day 5, Cohort 1 (5-day)) was 27/67. The “Erythema grade 3, n/N subjects” value (Day 5, Cohort 1 (5-day)) was 9/67, the “Erythema grade 4, n/N subjects” value (Day 5, Cohort 1 (5-day)) was 0 and the “Flaking/Scaling grade 0, n/N subjects” value (Day 5, Cohort 1 (5-day)) was 35/67. For the same molecule, the “Flaking/Scaling grade 1, n/N subjects” value (Day 5, Cohort 1 (5-day)) was 21/67, the “Flaking/Scaling grade 2, n/N subjects” value (Day 5, Cohort 1 (5-day)) was 9/67 and the “Flaking/Scaling grade 3, n/N subjects” value (Day 5, Cohort 1 (5-day)) was 2/67. The “Flaking/Scaling grade 4, n/N subjects” value (Day 5, Cohort 1 (5-day)) was 0, the “Swelling grade 0, n/N subjects” value (Day 5, Cohort 1 (5-day)) was 58/67 and the “Swelling grade 1, n/N subjects” value (Day 5, Cohort 1 (5-day)) was 7/67. For the same molecule, the “Swelling grade 2, n/N subjects” value (Day 5, Cohort 1 (5-day)) was 1/67, the “Swelling grade 3, n/N subjects” value (Day 5, Cohort 1 (5-day)) was 1/67 and the “Swelling grade 4, n/N subjects” value (Day 5, Cohort 1 (5-day)) was 0. The “Vesiculation/Pustulation grade 0, n/N subjects” value (Day 5, Cohort 1 (5-day)) was 65/67, the “Vesiculation/Pustulation grade 1, n/N subjects” value (Day 5, Cohort 1 (5-day)) was 2/67 and the “Vesiculation/Pustulation grade 2, n/N subjects” value (Day 5, Cohort 1 (5-day)) was 0. For the same molecule, the “Vesiculation/Pustulation grade 3, n/N subjects” value (Day 5, Cohort 1 (5-day)) was 0, the “Vesiculation/Pustulation grade 4, n/N subjects” value (Day 5, Cohort 1 (5-day)) was 0 and the “Crusting grade 0, n/N subjects” value (Day 8, Cohort 1 (5-day)) was 51/67. The “Crusting grade 1, n/N subjects” value (Day 8, Cohort 1 (5-day)) was 15/67, the “Crusting grade 2, n/N subjects” value (Day 8, Cohort 1 (5-day)) was 1/67 and the “Crusting grade 3, n/N subjects” value (Day 8, Cohort 1 (5-day)) was 0. For the same molecule, the “Crusting grade 4, n/N subjects” value (Day 8, Cohort 1 (5-day)) was 0, the “Erosion/Ulceration grade 0, n/N subjects” value (Day 8, Cohort 1 (5-day)) was 65/67 and the “Erosion/Ulceration grade 1, n/N subjects” value (Day 8, Cohort 1 (5-day)) was 1/67. For the same molecule, the “Erosion/Ulceration grade 2, n/N subjects” value (Day 8, Cohort 1 (5-day)) was 1/67, the “Erosion/Ulceration grade 3, n/N subjects” value (Day 8, Cohort 1 (5-day)) was 0 and the “Erosion/Ulceration grade 4, n/N subjects” value (Day 8, Cohort 1 (5-day)) was 0. The “Erythema grade 0, n/N subjects” value (Day 8, Cohort 1 (5-day)) was 14/67, the “Erythema grade 1, n/N subjects” value (Day 8, Cohort 1 (5-day)) was 24/67 and the “Erythema grade 2, n/N subjects” value (Day 8, Cohort 1 (5-day)) was 25/67. The “Erythema grade 3, n/N subjects” value (Day 8, Cohort 1 (5-day)) was 4/67, the “Erythema grade 4, n/N subjects” value (Day 8, Cohort 1 (5-day)) was 0 and the “Flaking/Scaling grade 0, n/N subjects” value (Day 8, Cohort 1 (5-day)) was 26/67. The “Flaking/Scaling grade 1, n/N subjects” value (Day 8, Cohort 1 (5-day)) was 18/67, the “Flaking/Scaling grade 2, n/N subjects” value (Day 8, Cohort 1 (5-day)) was 15/67 and the “Flaking/Scaling grade 3, n/N subjects” value (Day 8, Cohort 1 (5-day)) was 8/67. The “Flaking/Scaling grade 4, n/N subjects” value (Day 8, Cohort 1 (5-day)) was 0, the “Swelling grade 0, n/N subjects” value (Day 8, Cohort 1 (5-day)) was 64/67 and the “Swelling grade 1, n/N subjects” value (Day 8, Cohort 1 (5-day)) was 3/67. For the same molecule, the “Swelling grade 2, n/N subjects” value (Day 8, Cohort 1 (5-day)) was 0, the “Swelling grade 3, n/N subjects” value (Day 8, Cohort 1 (5-day)) was 0 and the “Swelling grade 4, n/N subjects” value (Day 8, Cohort 1 (5-day)) was 0. For the same molecule, the “Vesiculation/Pustulation grade 0, n/N subjects” value (Day 8, Cohort 1 (5-day)) was 67/67, the “Vesiculation/Pustulation grade 1, n/N subjects” value (Day 8, Cohort 1 (5-day)) was 0 and the “Vesiculation/Pustulation grade 2, n/N subjects” value (Day 8, Cohort 1 (5-day)) was 0.
